The source of these data is ChEMBL document CHEMBL1201862, “PubChem BioAssay data set” (2004).

Active and inactive are the calls of the source. Where only a bound is given, the exact number is not on record here.

One experiment addresses Prothrombin (Bos taurus, UniProt P00735). The experiment can be described thus: thrombin protease inhibitors – biochemical, fluorescence polarization, uHTS hits, dose response (AID 602369). Format: functional.
The target in experiment [1] is 72 kDa type IV collagenase (Homo sapiens, UniProt P08253). The experiment can be described thus: Dose Response validation of uHTS RPN11 inhibitor hits using a MMP-2 Fluorescence assay. Type of experiment: functional.
72 kDa type IV collagenase, sequence (P08253 whole entry): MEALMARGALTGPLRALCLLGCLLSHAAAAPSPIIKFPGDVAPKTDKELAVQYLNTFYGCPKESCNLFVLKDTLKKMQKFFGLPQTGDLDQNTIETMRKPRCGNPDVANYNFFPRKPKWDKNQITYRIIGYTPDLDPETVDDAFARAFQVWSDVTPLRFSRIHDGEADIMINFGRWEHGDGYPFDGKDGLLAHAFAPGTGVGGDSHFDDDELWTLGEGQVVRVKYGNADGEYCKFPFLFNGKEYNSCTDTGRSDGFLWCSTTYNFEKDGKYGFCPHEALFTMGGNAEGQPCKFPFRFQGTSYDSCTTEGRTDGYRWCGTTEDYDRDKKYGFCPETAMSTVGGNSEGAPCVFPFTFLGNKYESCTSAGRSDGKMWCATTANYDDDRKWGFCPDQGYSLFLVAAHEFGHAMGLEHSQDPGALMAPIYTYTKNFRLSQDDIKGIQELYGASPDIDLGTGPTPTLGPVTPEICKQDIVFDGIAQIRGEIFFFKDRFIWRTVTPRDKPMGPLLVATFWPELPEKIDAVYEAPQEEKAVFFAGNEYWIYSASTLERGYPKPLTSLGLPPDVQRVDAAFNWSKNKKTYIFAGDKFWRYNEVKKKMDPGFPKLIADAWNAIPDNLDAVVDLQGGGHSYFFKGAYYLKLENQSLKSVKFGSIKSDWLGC
In experiment [2] the target is 26S proteasome non-ATPase regulatory subunit 14 (Homo sapiens, UniProt O00487). Put plainly: inhibition of proteasome subunit RPN11 – biochemical, fluorescence polarization, uHTS hits, confirmation (AID 602368). Format: functional.
26S proteasome non-ATPase regulatory subunit 14, sequence (O00487 whole entry): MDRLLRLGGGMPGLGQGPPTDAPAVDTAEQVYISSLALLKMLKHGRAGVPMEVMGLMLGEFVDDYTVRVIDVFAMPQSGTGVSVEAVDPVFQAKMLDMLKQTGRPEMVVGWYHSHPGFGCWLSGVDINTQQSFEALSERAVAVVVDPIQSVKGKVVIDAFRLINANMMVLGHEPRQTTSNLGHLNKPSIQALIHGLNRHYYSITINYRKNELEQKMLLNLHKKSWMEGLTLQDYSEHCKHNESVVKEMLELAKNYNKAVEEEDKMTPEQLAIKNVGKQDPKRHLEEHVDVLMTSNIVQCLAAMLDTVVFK
Experiment [3] addresses T1, Rac GTPase-activating protein 1 (Homo sapiens, UniProt Q9H0H5).
T1 sequence (Q9H0H5 whole entry): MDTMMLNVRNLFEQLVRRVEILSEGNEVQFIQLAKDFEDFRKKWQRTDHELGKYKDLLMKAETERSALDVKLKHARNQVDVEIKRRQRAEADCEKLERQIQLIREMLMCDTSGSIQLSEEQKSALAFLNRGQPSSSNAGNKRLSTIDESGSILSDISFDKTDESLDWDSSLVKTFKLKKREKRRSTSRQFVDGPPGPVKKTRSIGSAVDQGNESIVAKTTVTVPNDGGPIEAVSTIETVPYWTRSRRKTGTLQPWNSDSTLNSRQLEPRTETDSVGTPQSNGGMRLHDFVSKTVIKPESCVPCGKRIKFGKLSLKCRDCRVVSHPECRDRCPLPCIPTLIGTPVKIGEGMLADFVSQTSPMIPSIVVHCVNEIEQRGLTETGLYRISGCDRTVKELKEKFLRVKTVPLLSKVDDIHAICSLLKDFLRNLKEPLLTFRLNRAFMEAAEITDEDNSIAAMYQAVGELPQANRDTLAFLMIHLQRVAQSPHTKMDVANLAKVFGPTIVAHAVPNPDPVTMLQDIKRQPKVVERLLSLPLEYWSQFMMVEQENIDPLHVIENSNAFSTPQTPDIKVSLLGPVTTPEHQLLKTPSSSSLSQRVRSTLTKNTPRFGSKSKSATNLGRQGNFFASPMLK
Put plainly: blockers of MgcRacGAP-driven Rac1 GTP hydrolysis – biochemical, ADP Hunter fluorescence, primary and confirmatory, confirmation (AID 624330). Type of experiment: functional.

Experiment [4] concerns the target T2, Corticotropin-releasing factor receptor 2/Corticotropin-releasing factor-binding protein (Homo sapiens, UniProt P24387+Q13324).
T2 sequence (Q13324 whole entry): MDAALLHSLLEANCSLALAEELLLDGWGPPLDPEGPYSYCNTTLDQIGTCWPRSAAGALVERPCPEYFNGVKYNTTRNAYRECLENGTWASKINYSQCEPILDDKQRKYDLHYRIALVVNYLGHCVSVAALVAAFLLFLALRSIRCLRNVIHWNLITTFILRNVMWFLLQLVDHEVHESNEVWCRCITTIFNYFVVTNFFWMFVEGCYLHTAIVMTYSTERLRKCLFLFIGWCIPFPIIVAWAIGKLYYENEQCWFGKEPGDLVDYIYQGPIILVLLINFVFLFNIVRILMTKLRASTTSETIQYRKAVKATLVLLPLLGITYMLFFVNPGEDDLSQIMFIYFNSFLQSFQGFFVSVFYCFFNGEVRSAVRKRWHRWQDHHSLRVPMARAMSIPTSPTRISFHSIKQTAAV
T2 sequence (P24387 whole entry): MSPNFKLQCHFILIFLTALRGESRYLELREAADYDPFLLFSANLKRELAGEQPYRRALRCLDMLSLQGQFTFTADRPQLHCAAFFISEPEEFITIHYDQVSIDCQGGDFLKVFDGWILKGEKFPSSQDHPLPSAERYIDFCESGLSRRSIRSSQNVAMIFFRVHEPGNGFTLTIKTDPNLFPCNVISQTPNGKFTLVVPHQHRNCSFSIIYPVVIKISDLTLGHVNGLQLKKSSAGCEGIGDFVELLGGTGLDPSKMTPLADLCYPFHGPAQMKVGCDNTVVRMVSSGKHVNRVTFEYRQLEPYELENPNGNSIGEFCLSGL
Put plainly: Dose Response confirmation of uHTS hits for small molecule antagonists of the CRF-binding protein and CRF-R2 receptor complex. Format: functional. The settings on record: read-out: IC50_Mean.

The target in experiment [5] is T3, Nuclear receptor subfamily 0 group B member 1 (Homo sapiens, UniProt P51843).
T3 sequence (P51843 whole entry): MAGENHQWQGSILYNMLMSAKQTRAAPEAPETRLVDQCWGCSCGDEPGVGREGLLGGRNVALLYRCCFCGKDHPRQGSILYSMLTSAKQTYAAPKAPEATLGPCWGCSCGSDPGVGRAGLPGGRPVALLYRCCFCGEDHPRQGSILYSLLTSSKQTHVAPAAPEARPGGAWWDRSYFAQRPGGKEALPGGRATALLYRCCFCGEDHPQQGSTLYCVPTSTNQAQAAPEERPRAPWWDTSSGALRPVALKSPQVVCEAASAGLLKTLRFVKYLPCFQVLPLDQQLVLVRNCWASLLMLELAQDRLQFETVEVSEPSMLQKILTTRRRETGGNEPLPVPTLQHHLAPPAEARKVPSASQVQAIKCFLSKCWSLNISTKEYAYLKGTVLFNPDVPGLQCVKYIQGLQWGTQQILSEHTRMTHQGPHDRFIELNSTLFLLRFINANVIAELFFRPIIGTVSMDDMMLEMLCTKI
Put plainly: Luminescence-based cell-based high throughput dose response assay for inhibitors of the orphan nuclear receptor subfamily 0, group B, member 1 (DAX1; NR0B1). [Related pubchem assays (depositor defined):AID504766, AID504790]. Format: functional.

In a further experiment the test system is HEK293. The experiment can be described thus: cells. Type of experiment: functional, cell-based. The settings on record: Homo sapiens.
Experiment [6] has as its target T2, Corticotropin-releasing factor receptor 2/Corticotropin-releasing factor-binding protein. Put plainly: activators of CRF receptor 2 with binding protein – uHTS hits, confirmation (AID 602473). Format: functional. The settings on record: read-out: EC50_Mean.
Another experiment deals with Protein Wnt-3a (Mus musculus, UniProt P27467). The experiment can be described thus: antagonism of Wnt3a pathway luciferase reporter – Wnt-LIGHT cells, luminescence, selectivity assay for Gli-SUFU antagonist project, dose response (AID 651570).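 Further: Wnt-LIGHT reporter cells stimulated with conditioned medium from Wnt3a-producing cells.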 Type of experiment: functional. The settings on record: read-out: IC50_Mean.
Protein Wnt-3a, sequence (P27467 whole entry): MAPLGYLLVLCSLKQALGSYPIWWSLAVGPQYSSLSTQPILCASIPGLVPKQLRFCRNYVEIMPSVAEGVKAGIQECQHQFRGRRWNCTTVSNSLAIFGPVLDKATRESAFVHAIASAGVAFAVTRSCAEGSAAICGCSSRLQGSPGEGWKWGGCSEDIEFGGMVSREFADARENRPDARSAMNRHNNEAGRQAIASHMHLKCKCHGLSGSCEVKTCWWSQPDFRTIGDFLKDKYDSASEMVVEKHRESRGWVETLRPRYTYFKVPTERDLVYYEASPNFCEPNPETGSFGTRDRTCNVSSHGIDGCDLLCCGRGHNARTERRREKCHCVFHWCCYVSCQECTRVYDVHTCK
Experiment [7] can be described thus: A Cell Based Secondary Assay To Explore Cytotoxicity of Compounds that Sensitize Mycobacterium Tuberculosis to Beta-Lactam Antibiotics. Type of experiment: functional.
Experiment [8] addresses T4, Mitochondrial peptide methionine sulfoxide reductase (Bos taurus, UniProt P54149).
T4 sequence (P54149 whole entry): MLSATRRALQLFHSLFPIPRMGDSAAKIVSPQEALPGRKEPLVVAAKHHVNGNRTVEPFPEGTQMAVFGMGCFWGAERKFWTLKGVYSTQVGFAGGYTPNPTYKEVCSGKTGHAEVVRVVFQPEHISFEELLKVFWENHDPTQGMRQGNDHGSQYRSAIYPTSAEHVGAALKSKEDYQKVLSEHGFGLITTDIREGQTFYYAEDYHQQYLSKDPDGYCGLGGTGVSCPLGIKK
Type of experiment: functional.

As to `CN1C(=O)/C(=C/C=C2/CCCN2C)N(C)C1=S`, the IC50 was 29 µM (active) on Prothrombin, > 100 µM (inactive) in [1], 8.15 µM (active) in experiment [2] and 24.2 µM (active) in experiment [3].

As for `CC1(C)CC(NCCC(c2ccccc2)c2ccco2)CCO1` (centres undefined), the IC50 in [4] was > 47.1 µM (inactive); in experiment [5], > 67.5 µM (inactive); in the experiment with HEK293, > 67.5 µM (inactive). In addition, the EC50 in experiment [6] was > 53 µM (inactive).

Consider `FC(F)Oc1ccc(-[n+]2cc(-c3ccccc3)n3c2CCCCC3)cc1`, for which the IC50 at Protein Wnt-3a was 12.5 µM (active).

Take `COCCNc1nc2c(c(=O)n(C)c(=O)n2C)n1Cc1cccc(C)c1`: on Protein Wnt-3a, the IC50 was 1.95 µM (active).

In the case of `CCNc1nc(CN2CCCCC2)nc2scc(-c3ccccc3)c12`, in experiment [7], the 50% cytotoxic concentration (CC50) is > 40 µM (active). Also, the IC50 on Protein Wnt-3a was 5.03 µM (active).

On to `COc1ccccc1NC(=O)CSc1ccc(-c2ccc(-n3cccn3)cc2)nn1`, for which the IC50 was > 100 µM (inactive) at Prothrombin, > 100 µM (inactive) in experiment [1] and 15.7 µM (active) in experiment [2].

For `O=[N+]([O-])c1ccc(N/N=C\c2cccn2-c2ccccc2)nc1`, the values for the IC50 (on Prothrombin; in experiment [1]; in [2]) were 29.5 µM (active), > 100 µM (inactive) and 23.5 µM (active), respectively.

For `C/C(=N\Nc1ccc([N+](=O)[O-])cc1[N+](=O)[O-])c1cccnc1`, the IC50 in experiment [8] was 155 µM (inactive).
